Reference: ChEMBL document CHEMBL1201862, “PubChem BioAssay data set” (2004)
Where a name gives a salt, the structure may show the parent alone. Activity calls are given as the source filed them.

How the values were obtained:
[1] = target: T1, Heat shock factor protein 1 (Mus musculus, UniProt P38532); assay: HSF1 potentiators in luciferase reporter cells, confirmation, cell-based, NIH3T3, luminescence, dose retest (AID 435004); type: functional;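 note: stress induced by proteasome inhibitor MG132 added 30 min after compound; luciferase reporter driven by HSF1 response element in NIH3T3 cells; actives raise luminescence as potentiators of the MG132 stress response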
T1 sequence (P38532 whole entry): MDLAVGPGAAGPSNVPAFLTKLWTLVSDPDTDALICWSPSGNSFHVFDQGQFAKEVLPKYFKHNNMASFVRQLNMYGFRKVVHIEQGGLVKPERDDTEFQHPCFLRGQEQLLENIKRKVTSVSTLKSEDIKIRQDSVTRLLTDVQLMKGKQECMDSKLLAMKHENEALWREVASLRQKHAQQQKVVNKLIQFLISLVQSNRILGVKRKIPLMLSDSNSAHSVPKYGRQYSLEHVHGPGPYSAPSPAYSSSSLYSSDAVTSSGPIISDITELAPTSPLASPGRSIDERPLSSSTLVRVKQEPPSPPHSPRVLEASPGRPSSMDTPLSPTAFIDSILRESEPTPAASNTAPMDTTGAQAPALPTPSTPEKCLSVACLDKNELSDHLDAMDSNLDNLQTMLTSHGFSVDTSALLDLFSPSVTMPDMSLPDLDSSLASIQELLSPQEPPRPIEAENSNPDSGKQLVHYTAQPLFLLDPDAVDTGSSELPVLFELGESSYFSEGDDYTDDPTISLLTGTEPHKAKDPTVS

Cytochrome P450 3A4 = Cytochrome P450 3A4 (Homo sapiens, UniProt P08684);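 note: CYP3A4 tested as one member of a cytochrome P450 panel screen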
Sequence of Cytochrome P450 3A4 (P08684 whole entry): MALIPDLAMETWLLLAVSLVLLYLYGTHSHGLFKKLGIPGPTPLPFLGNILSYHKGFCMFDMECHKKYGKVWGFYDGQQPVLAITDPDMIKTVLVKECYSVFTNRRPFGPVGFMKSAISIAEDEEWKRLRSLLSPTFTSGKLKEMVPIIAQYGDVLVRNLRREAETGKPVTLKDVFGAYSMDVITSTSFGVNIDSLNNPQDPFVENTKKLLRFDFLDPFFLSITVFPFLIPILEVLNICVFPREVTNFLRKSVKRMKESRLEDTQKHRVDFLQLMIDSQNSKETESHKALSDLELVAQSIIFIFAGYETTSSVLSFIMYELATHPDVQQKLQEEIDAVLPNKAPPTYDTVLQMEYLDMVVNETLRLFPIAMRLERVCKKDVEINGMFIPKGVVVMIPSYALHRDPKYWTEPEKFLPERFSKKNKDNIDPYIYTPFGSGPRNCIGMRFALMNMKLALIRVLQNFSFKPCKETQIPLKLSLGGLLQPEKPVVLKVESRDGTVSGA

Cytochrome P450 2C19 = Cytochrome P450 2C19 (Homo sapiens, UniProt P33261); assay: Cytochrome panel assay with activity outcomes. Panel member name: p450-cyp2c19 Compounds with AC50 equal or less than 10 uM are considered active; type: functional
Sequence of Cytochrome P450 2C19 (P33261 whole entry): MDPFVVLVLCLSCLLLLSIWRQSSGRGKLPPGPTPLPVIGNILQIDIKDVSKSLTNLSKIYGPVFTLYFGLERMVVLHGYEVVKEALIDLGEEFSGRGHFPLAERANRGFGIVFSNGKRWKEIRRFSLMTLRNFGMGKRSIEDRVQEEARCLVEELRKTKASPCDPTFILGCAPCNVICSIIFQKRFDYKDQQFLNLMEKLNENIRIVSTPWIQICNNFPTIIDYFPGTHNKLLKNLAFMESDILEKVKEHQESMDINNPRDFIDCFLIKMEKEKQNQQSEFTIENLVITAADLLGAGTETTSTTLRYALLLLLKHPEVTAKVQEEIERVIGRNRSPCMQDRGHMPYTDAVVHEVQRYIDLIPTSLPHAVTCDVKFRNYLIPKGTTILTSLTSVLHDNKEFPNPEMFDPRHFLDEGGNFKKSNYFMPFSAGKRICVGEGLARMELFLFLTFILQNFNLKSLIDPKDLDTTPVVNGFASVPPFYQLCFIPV

[2] = P. falciparum Dd2 growth inhibitors, dose response, SYBR Green, cherry-picked samples (AID 1159567); type: functional, cell-based
Cytochrome P450 2D6 = Cytochrome P450 2D6 (Homo sapiens, UniProt P10635);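 note: CYP2D6 member of a cytochrome P450 panel assay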
Sequence of Cytochrome P450 2D6 (P10635 whole entry): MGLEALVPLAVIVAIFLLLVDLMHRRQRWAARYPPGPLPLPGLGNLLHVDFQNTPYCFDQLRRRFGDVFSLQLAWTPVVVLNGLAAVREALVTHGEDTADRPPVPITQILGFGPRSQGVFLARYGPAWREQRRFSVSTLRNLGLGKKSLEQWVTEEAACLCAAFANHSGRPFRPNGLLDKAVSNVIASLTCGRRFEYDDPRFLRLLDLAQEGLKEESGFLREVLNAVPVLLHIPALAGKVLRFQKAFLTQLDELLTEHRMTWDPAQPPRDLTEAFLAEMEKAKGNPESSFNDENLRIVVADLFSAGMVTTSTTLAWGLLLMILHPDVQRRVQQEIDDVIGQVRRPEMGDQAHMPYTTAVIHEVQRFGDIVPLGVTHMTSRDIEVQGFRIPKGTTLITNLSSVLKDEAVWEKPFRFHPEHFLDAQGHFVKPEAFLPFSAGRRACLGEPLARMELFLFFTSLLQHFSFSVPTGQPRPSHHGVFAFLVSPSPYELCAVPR

[3] = target: FAD-linked sulfhydryl oxidase ALR (Homo sapiens, UniProt P55789); assay: inhibitors of human ALR sulfhydryl oxidase, dose response, biochemical, H2O2 detection, luminescence, cherry-pick (AID 493248)
Sequence of FAD-linked sulfhydryl oxidase ALR (P55789 whole entry): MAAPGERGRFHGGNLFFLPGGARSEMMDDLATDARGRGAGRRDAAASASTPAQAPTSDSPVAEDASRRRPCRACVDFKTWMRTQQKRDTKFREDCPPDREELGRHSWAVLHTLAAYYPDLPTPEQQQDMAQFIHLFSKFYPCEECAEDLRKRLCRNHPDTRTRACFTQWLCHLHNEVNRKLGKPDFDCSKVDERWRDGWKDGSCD

Cytochrome P450 1A2 = target: T2, Cytochrome P450 1A2 (Homo sapiens, UniProt P05177);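 note: PubChem cytochrome P450 panel assay, CYP1A2 panel member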
T2 sequence (P05177 whole entry): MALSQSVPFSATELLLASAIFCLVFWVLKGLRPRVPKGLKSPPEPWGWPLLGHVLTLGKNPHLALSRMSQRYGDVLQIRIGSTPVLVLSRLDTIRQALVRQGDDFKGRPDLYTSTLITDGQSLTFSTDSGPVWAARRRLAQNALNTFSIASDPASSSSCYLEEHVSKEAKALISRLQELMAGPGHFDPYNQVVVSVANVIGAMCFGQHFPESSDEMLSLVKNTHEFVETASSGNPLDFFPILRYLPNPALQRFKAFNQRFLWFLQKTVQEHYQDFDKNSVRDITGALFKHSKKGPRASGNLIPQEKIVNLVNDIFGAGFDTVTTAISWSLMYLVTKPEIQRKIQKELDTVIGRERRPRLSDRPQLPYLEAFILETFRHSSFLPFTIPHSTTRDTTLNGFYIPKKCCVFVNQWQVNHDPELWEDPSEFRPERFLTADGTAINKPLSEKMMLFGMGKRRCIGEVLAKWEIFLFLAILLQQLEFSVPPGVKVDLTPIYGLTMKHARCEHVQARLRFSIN

H4 = assay: Luminescence Cell-Based Dose Response HTS to Identify Activators of 5'UTR Stem-Loop Driven Prion Protein mRNA Translation in H4 Neuroglioblastoma Cells. [Related pubchem assays: 1829 (Project Summary), 1814 (Primary HTS)]; type: functional; conditions: Homo sapiens
[4] = target: T3, Calpain-2 catalytic subunit (Sus scrofa, UniProt P43367); assay: pig calpain II inhibitor potency, dose response, biochemical, fluorogenic peptide substrate (AID 1420); type: functional
T3 sequence (P43367 whole entry): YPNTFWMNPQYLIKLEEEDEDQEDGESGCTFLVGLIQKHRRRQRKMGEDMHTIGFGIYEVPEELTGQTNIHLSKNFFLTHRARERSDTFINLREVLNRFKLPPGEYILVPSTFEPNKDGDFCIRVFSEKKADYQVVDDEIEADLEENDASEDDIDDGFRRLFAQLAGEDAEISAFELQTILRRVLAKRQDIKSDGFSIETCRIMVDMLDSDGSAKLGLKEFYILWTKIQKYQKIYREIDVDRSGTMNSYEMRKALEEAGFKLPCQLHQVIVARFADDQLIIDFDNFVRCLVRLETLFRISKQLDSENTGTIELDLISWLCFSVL

[5] = Luminescence Cell-Based Dose Retest to Confirm Inhibitors of Cancer Stem Cells. [Related pubchem assays (depositor defined):AID2717, AID2721]; type: functional; conditions: Homo sapiens
[6] = target: Luciferin 4-monooxygenase (Photinus pyralis, UniProt P08659); assay: firefly luciferase enzyme inhibitors, dose response, biochemical, luminescence (AID 1891)
Sequence of Luciferin 4-monooxygenase (P08659 whole entry): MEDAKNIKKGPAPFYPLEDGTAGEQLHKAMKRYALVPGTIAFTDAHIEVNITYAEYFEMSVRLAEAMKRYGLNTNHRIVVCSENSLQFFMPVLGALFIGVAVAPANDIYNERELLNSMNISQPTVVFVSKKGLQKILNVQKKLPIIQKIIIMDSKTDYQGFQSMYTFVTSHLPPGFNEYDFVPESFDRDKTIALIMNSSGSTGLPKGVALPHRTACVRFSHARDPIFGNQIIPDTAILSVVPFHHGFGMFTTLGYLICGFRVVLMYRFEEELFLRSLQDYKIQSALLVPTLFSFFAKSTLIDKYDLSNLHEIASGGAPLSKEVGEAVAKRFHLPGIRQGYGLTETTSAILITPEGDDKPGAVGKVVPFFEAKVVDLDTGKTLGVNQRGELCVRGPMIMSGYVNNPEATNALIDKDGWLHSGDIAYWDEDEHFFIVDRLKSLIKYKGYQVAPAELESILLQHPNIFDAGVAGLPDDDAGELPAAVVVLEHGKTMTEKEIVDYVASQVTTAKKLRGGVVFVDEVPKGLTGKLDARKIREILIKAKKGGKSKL

[7] = Luminescence Cell-Based Dose Confirmation HTS to Identify Inhibitors of Platelet Dense Granule Release. [Related pubchem assays: 1663 (Primary HTS), 1678 (Summary of Project)]; type: functional

CC(C(=O)Nc1ccccc1Br)N1c2cccc3cccc(c23)S1(=O)=O (centres undefined)
EC50 [1]: > 260 µM (inactive)

COc1ccc2nc(NC(=O)CSc3nnc(C)s3)sc2c1
AC50 (Cytochrome P450 3A4): 3.98 µM (inconclusive)
AC50 (Cytochrome P450 2C19; read-out: AC50): 3.55 µM (inconclusive)

O=C(c1ccc(F)cc1)N1CC(=O)N2[C@H](CO)[C@H](c3ccc(C#Cc4ccc(F)cc4)cc3)[C@H]2C1
AC50 [2]: 4.05 µM (active)

Cc1cc2c(ncn2C)c(NS(=O)(=O)c2cc(Cl)ccc2Cl)c1C
EC50 [1]: > 260 µM (inactive)

COc1ccc(NC(=O)COc2ccc(CNCCCN3CCOCC3)cc2OC)cc1.Cl
AC50 (Cytochrome P450 2C19): inconclusive

CC(=O)Nc1ccc(NC(=O)c2ccccc2CC[N+](=O)[O-])cc1
AC50 (Cytochrome P450 2C19; read-out: AC50): 0.355 µM (inconclusive)
AC50 (Cytochrome P450 2D6): 14.1 µM (inconclusive)

O=C(O)CCC(=O)NCCn1c(-c2ccccc2)cs/c1=N\c1ccccc1
EC50 [1]: > 260 µM (inactive)
AC50 [3]: 22.3 µM (active)

COCCn1c(=O)c(-c2cn(C)c3ccccc23)nc2cnc(Oc3ccc(OC)cc3)nc21
AC50 (Cytochrome P450 2C19; read-out: AC50): 15.8 µM (inconclusive)
AC50 (Cytochrome P450 1A2): 2.51 µM (inconclusive)

Cc1cccc(COc2ccc(/C=N/NC(=O)c3nnn(-c4nonc4N)c3COc3ccc(F)cc3)cc2)c1
EC50 (H4): 61.7 µM (active)

O=C(c1c[nH]c2ccccc12)N1CCN(c2ccccc2)CC1
AC50 [3]: 4.16 µM (active)

CCS(=O)(=O)N1CC2(CN(Cc3ccccc3F)[C@@H](CO)c3[nH]c4cc(OC)ccc4c32)C1
AC50 [2]: 9.94 µM (active)

COc1cccc(Nc2ccccc2C(=O)O)c1
AC50 [3]: 3.35 µM (active)

NC(=O)NC(=O)C(Nc1ccc(N2CCCCC2)cc1)c1ccccc1 (centres undefined)
AC50 [3]: 0.797 µM (active)

C=CCn1c(S)nnc1C1CCCCC1
EC50 [1]: > 260 µM (inactive)

N#C[C@@H]1[C@H](c2ccc(C#CC3CCCCC3)cc2)[C@H](CO)N1C(=O)Nc1ccc(F)cc1
AC50 [2]: 5.43 µM (active)

COc1ccc(Nc2c(-c3ccc(C)cc3)nc3cnccn23)cc1
IC50 [4]: > 50 µM (not active)
AC50 [3]: 0.763 µM (active)

N=C(N)SCc1nc2ccccc2c(=O)n1-c1ccccc1Cl
AC50 [5]: 6.37 µM (active)
AC50 (Cytochrome P450 2C19; read-out: AC50): 10 µM (inconclusive)
AC50 (Cytochrome P450 2D6): 0.316 µM (inconclusive)

CC(=O)c1nn(-c2cccc(Br)c2)cc1C(=O)c1ccc(Cl)cc1
EC50 [1]: > 260 µM (inactive)

CC(C)NC(=O)N1[C@H](C#N)[C@H](c2ccc(-c3ccc(F)cc3)cc2)[C@@H]1CO
AC50 [2]: 4.17 µM (active)

COc1ccc(C(=O)Nc2ccccc2C(=O)N/N=C/c2cccc3ccccc23)cc1
EC50 (H4): > 120 µM (not active)
EC50 [6]: 1.35 µM (active)
EC50 [7]: 1.15 µM (active)

N#Cc1ccc(CN2CC3(CCN(C(=O)c4cc(C(F)(F)F)cc(C(F)(F)F)c4)CC3)C2)cc1
AC50 (Cytochrome P450 2C19; read-out: AC50): 39.8 µM (inconclusive)
AC50 (Cytochrome P450 2D6): 31.6 µM (inconclusive)

C[C@H](CO)N1C[C@H](C)[C@H](CN(C)S(=O)(=O)c2ccccc2)Oc2ccc(NC(=O)Cc3cn(C)c4ccccc34)cc2C1=O
AC50 [2]: 3.2 µM (active)

CCCN(C)C[C@@H]1Oc2cc(C#CC3CCCC3)ccc2S(=O)(=O)N([C@@H](C)CO)C[C@@H]1C
AC50 [2]: 4.85 µM (active)

O=C(CCC(=O)N1CCN(c2ccc(O)cc2)CC1)c1ccc(Br)cc1
AC50 [5]: 6.98 µM (active)
EC50 [1]: > 260 µM (inactive)

COc1ccc(-c2c[nH]nc2-c2ccc(OCc3ccc([N+](=O)[O-])cc3)cc2O)cc1OC
EC50 [1]: > 260 µM (inactive)

CC(C)CN1CCCC2(CCN(S(=O)(=O)c3ccccc3)CC2)C1
AC50 (Cytochrome P450 2C19; read-out: AC50): 31.6 µM (inconclusive)

CCc1noc(N)c1C(=O)Nc1ccc(F)c(Cl)c1
AC50 (Cytochrome P450 3A4): 15.8 µM (inconclusive)
AC50 (Cytochrome P450 2C19; read-out: AC50): 15.8 µM (inconclusive)
AC50 (Cytochrome P450 2D6): 22.4 µM (inconclusive)

COc1ccc(NC(=O)NC2CC3CCCC(C2)N3Cc2ccccc2)cc1 (centres undefined)
AC50 (Cytochrome P450 2C19; read-out: AC50): 14.1 µM (inconclusive)
AC50 (Cytochrome P450 2D6): 11.2 µM (inconclusive)

CCOC(=O)c1ccccc1NC(=O)/C(C)=C/C(=O)O
AC50 (Cytochrome P450 2C19; read-out: AC50): 39.8 µM (inconclusive)
AC50 (Cytochrome P450 1A2): 20 µM (inconclusive)

O=C(O)c1cccc2c3c([nH]c12)CCCC3
AC50 [3]: 5.66 µM (active)

COc1cccc(NC(=O)N(C)C[C@H]2Oc3ncc(/C=C/c4ccccc4)cc3C(=O)N([C@@H](C)CO)C[C@@H]2C)c1
AC50 [2]: 6.14 µM (active)

N#Cc1c(NC(=O)c2ccccc2)sc2c1CCC2
EC50 (H4): 12.6 µM (active)

O=C(OC1CCOC1=O)c1cc(Cl)ccc1[N+](=O)[O-] (centres undefined)
EC50 [1]: > 260 µM (inactive)

CN1CCN([C@@H](c2ccccc2)c2ccc(Cl)cc2)CC1 [CHLORCYCLIZINE HYDROCHLORIDE]
AC50 (Cytochrome P450 2C19; read-out: AC50): 3.98 µM (inconclusive)
